In BindingDB's records for patent US20250313563 (The Broad Institute, 2025):
pIC50: −log10 of the molar value. “And” between values parts separate entries of the source, which are not always exact repeats. Equal entries are not always repeated.

Target: Glycogen synthase kinase-3 beta (Homo sapiens, UniProt P49841)
Assay: TR-FRET Assay
Method: The assay was performed in a white, 384 well, low volume, flat bottom plate (Grenier). […] The kinase activity was quenched with 2 μL of 250 mM EDTA. A 10 μL volume of 40 nM Strepavidin-d2, 2 nM Tb2+-pSer641 antibody in TR-FRET Detection Buffer (Invitrogen) was then added.

Chain of Glycogen synthase kinase-3 beta (P49841 whole entry): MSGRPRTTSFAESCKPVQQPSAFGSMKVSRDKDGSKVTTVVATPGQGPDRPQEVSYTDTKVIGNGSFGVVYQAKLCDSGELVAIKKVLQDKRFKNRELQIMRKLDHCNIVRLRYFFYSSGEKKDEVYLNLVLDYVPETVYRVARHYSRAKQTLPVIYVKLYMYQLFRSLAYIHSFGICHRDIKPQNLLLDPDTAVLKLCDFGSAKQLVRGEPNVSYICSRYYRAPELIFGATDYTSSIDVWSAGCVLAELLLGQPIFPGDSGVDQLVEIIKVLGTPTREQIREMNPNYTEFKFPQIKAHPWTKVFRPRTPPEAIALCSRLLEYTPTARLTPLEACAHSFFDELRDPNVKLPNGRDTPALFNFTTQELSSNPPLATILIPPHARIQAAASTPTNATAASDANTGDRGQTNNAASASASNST

Q: `CC[C@]1(c2cccc(-c3cc(C)ncc3C)c2)C2=C(CC(C)(C)CC2=O)NC2N=NC(C(F)(F)F)=C21` (some centres not stated) [US20250313563, Compound 947363] was tested. Which pIC50 did it give?
A: 6.00 to 7.00

Q: How did the pIC50 turn out when `CC[C@@]1(c2cccc(-c3ccnc(C)c3)c2)C2=CN=NC2NC2=C1C(=O)C[C@]1(CCOC1)C2` (some centres not stated) [US20250313563, Compound 947407] was run?
A: 5.30 to 6.00

Q: How did the pIC50 turn out when `CC[C@]1(c2cccc(-c3ccncc3C)c2)C2=CN=NC2NC2=C1C(=O)NC(C)(C)C2` (some centres not stated) [US20250313563, Compound 947576] was run?
A: 5.30 to 6.00

Q: `CC[C@]1(c2cccc(-c3c(C)cncc3C)c2)C2=CN=NC2NC2=C1C(=O)CC(C)(C)C2` (some centres not stated) [US20250313563, Compound 947658] was tested. Which pIC50 did it give?
A: > 7.00 and 6.00 to 7.00

Q: How did the pIC50 turn out when `CC1(C)CC(=O)C2=C(C1)NC1=C(CN=N1)[C@@]21COC2(CN(C(=O)C3(F)CCC3)C2)C1` [US20250313563, Compound 947736] was run?
A: 6.00 to 7.00

Q: How did the pIC50 turn out when `CC[C@]1(c2cccc(-c3cc(C)ncc3F)c2)C2=CN=NC2NC2=C1C(=O)NC(C)(C)C2` (some centres not stated) [US20250313563, Compound 947804] was run?
A: 6.00 to 7.00

Q: `CC[C@@]1(c2cccc(Oc3ncccn3)c2)C2=CN=NC2NC2=C1C(=O)CC(C)(C)C2` (some centres not stated) [US20250313563, Compound 947808] was tested. Which pIC50 did it give?
A: 6.00 to 7.00

Q: How did the pIC50 turn out when `CC[C@]1(c2cccc(S(=O)(=O)C(C)C)c2)C2=C(CC(C)(C)NC2=O)NC2=C1C(C)N=N2` (some centres not stated) [US20250313563, Compound 947870] was run?
A: 6.00 to 7.00

Q: How did the pIC50 turn out when `CC[C@@]1(c2cccc(S(=O)(=O)C(C)C)c2)C2=C(CC(C)(C)NC2=O)NC2N=NC(C)=C21` (some centres not stated) [US20250313563, Compound 947876] was run?
A: 6.00 to 7.00

Q: `CC[C@@]1(c2cccc(-c3ccnn3C)c2)C2=CN=NC2NC2=C1C(=O)N[C@](C)(COC)C2` (some centres not stated) [US20250313563, Compound 947905] was tested. Which pIC50 did it give?
A: 6.00 to 7.00

Q: How did the pIC50 turn out when `Cc1ccc(C(=O)N2CC3(C2)C[C@]2(CO3)C3=C(N=NC3)NC3=C2C(=O)CC(C)(C)C3)cc1C` [US20250313563, Compound 948038] was run?
A: > 7.00 and 6.00 to 7.00

Q: With `CC[C@@]1(c2cccc(-c3ccncc3Cl)c2)C2=CN=NC2NC2=C1C(=O)NC(C)(C)C2` (some centres not stated) [US20250313563, Compound 948142] as the molecule, how does the pIC50 read?
A: 6.00 to 7.00

Q: With `CC[C@@]1(c2cccc(-c3ccnc(C)c3)c2)C2=CN=NC2NC2=C1C(=O)N[C@]1(CCCOC1)C2` (some centres not stated) [US20250313563, Compound 948152] as the molecule, how does the pIC50 read?
A: 6.00 to 7.00

Q: How did the pIC50 turn out when `CC[C@@]1(c2cccc(-c3c(Cl)cncc3Cl)c2)C2=CN=NC2NC2=C1C(=O)NC(C)(C)C2` (some centres not stated) [US20250313563, Compound 948515] was run?
A: 6.00 to 7.00

Q: With `CC[C@]1(c2cccc(-c3ccnn3C)c2)C2=CN=NC2NC2=C1C(=O)NC1(CCOCC1)C2` (some centres not stated) [US20250313563, Compound 948516] as the molecule, how does the pIC50 read?
A: 6.00 to 7.00

Q: How did the pIC50 turn out when `CC[C@]1(c2cccc(-c3ccnc(C)c3)c2)C2=CN=NC2NC2=C1C(=O)NC(C)(COC)C2` (some centres not stated) [US20250313563, Compound 948521] was run?
A: 5.30 to 6.00

Q: How did the pIC50 turn out when `CC[C@]1(c2cccc(-c3ccncc3C)c2)C2=CN=NC2NC2=C1C(=O)NC1(CCC1)C2` (some centres not stated) [US20250313563, Compound 948523] was run?
A: 6.00 to 7.00

Q: With `CC[C@]1(c2cccc(-c3c(F)cncc3OC)c2)C2=CN=NC2NC2=C1C(=O)CC(C)(C)[C@H]2F` (some centres not stated) [US20250313563, Compound 948545] as the molecule, how does the pIC50 read?
A: 6.00 to 7.00

Q: `CC[C@]1(c2cccc(-c3c(F)cncc3OC)c2)C2=CN=NC2NC2=C1C(=O)CC(C)(C)[C@@H]2F` (some centres not stated) [US20250313563, Compound 948546] was tested. Which pIC50 did it give?
A: 6.00 to 7.00

Q: `CC[C@@]1(c2cccc(-c3c(F)cncc3OC)c2)C2=CN=NC2NC2=C1C(=O)CC(C)(C)[C@@H]2F` (some centres not stated) [US20250313563, Compound 948548] was tested. Which pIC50 did it give?
A: 6.00 to 7.00

Q: `CC[C@@]1(c2cccc(-c3c(F)cncc3OC)c2)C2=C(N=NC2)NC2=C1C(=O)N(Cc1ccccc1)C2` [US20250313563, Compound 948550] was tested. Which pIC50 did it give?
A: 6.00 to 7.00

Q: `CC[C@]1(c2cccc(-c3ccnc4c3CCCC4)c2)C2=C(N=NC2)NC2=C1C(=O)N(Cc1ccccc1)C2` [US20250313563, Compound 948551] was tested. Which pIC50 did it give?
A: 6.00 to 7.00

Q: With `CCC1(c2cccc(-c3cc(C)nnc3C)c2)C2=C(CC(C)(C)NC2=O)NC2N=NC(C)=C21` (configuration not stated) [US20250313563, Compound 948766] as the molecule, how does the pIC50 read?
A: 6.00 to 7.00

Q: How did the pIC50 turn out when `CC[C@@]1(c2cccc(-c3cnn(C)c3C#N)c2)C2=CN=NC2NC2=C1C(=O)NC(C)(C)C2` (some centres not stated) [US20250313563, Compound 948827] was run?
A: 6.00 to 7.00

Q: With `CC[C@]1(c2cccc(-c3ccnc(C)c3)c2)C2=CN=NC2NC2=C1C(=O)N(C)C(C)(C)C2` (some centres not stated) [US20250313563, Compound 949004] as the molecule, how does the pIC50 read?
A: 6.00 to 7.00

Q: How did the pIC50 turn out when `CC[C@@]1(c2cccc(-c3cn(C)nc3C)c2)C2=CN=NC2NC2=C1C(=O)N(C)C(C)(C)C2` (some centres not stated) [US20250313563, Compound 949005] was run?
A: 5.30 to 6.00

Q: With `CC[C@@]1(c2cccc(-c3cnn(C)c3)c2)C2=C(CC(C)(C)NC2=O)NC2N=NC(F)=C21` (some centres not stated) [US20250313563, Compound 949011] as the molecule, how does the pIC50 read?
A: 6.00 to 7.00

Q: How did the pIC50 turn out when `CC[C@]1(c2cccc(C(F)(F)F)c2)C2=CN=NC2NC2=C1C(=O)N(c1cccc(C)c1)CC2` (some centres not stated) [US20250313563, Compound 949040] was run?
A: 6.00 to 7.00

Q: `CC[C@@]1(c2cccc(-c3cnn(C(C)(C)C)c3)c2)C2=CN=NC2NC2=C1C(=O)NC(C)(C)C2` (some centres not stated) [US20250313563, Compound 949112] was tested. Which pIC50 did it give?
A: 6.00 to 7.00 and < 5.30

Q: `CC[C@@]1(c2cccc(C(F)(F)F)c2)C2=C(CCN(c3cnc(OC)nc3)C2=O)NC2N=NC(C)=C21` (some centres not stated) [US20250313563, Compound 949126] was tested. Which pIC50 did it give?
A: 6.00 to 7.00

Q: With `CC[C@]1(c2cccc(C(F)(F)F)c2)C2=CN=NC2NC2=C1C(=O)N(c1ccccc1C)CC2` (some centres not stated) [US20250313563, Compound 949128] as the molecule, how does the pIC50 read?
A: 6.00 to 7.00

Q: How did the pIC50 turn out when `CC[C@@]1(c2cccc(N(C)c3ncccn3)c2)C2=C(CC(C)(C)NC2=O)NC2N=NC(C(F)(F)F)=C21` (some centres not stated) [US20250313563, Compound 949181] was run?
A: > 7.00 and 6.00 to 7.00

Q: How did the pIC50 turn out when `CC[C@@]1(c2cccc(N3CCCCC3)c2)C2=C(CC(C)(C)NC2=O)NC2N=NC(C(F)(F)F)=C21` (some centres not stated) [US20250313563, Compound 949183] was run?
A: 6.00 to 7.00

Q: With `CC[C@]1(c2cccc(-c3cn(C)nc3C(F)(F)F)c2)C2=CN=NC2NC2=C1C(=O)NC(C)(C)C2` (some centres not stated) [US20250313563, Compound 949266] as the molecule, how does the pIC50 read?
A: 6.00 to 7.00

Q: `CC[C@]1(c2cccc(C(F)(F)F)c2)C2=CN=NC2NC2=C1C(=O)N(c1cnn(C)c1)CC2` (some centres not stated) [US20250313563, Compound 949270] was tested. Which pIC50 did it give?
A: 6.00 to 7.00

Q: With `CC[C@]1(c2cccc(C(F)(F)F)c2)C2=CN=NC2NC2=C1C(=O)N(c1cnc(OC)nc1)[C@H](C)C2` (some centres not stated) [US20250313563, Compound 949351] as the molecule, how does the pIC50 read?
A: 6.00 to 7.00

Q: With `CC[C@]1(c2cccc(-c3c(C)cnc4ccccc34)c2)C2=C(CC(C)(C)NC2=O)NC2=NN=CC21` (some centres not stated) [US20250313563, Compound 949398] as the molecule, how does the pIC50 read?
A: 6.00 to 7.00

Q: How did the pIC50 turn out when `CC[C@]1(c2cccc(C(F)(F)F)c2)C2=CN=NC2NC2=C1C(=O)N(c1ccn(C)n1)CC2` (some centres not stated) [US20250313563, Compound 949835] was run?
A: 6.00 to 7.00

Q: `CC[C@@]1(c2cccc(C(F)(F)F)c2)C2=CN=NC2NC2=C1C(=O)C[C@]1(CCNC1=O)C2` (some centres not stated) [US20250313563, Compound 950324] was tested. Which pIC50 did it give?
A: 6.00 to 7.00

Q: How did the pIC50 turn out when `CC[C@@]1(c2cccc(Oc3ncccn3)c2)C2=C(CC(C)(C)CC2=O)NC2N=NC(C(F)(F)F)=C21` (some centres not stated) [US20250313563, Compound 951604] was run?
A: 6.00 to 7.00

Q: How did the pIC50 turn out when `CC1(C)CC(=O)C2=C(C1)NC1=C(CN=N1)[C@]21CCN(S(=O)(=O)c2ccccc2)C1` [US20250313563, Compound 951787] was run?
A: 6.00 to 7.00

Q: With `CC[C@@]1(c2cccc(-c3cnn(Cc4ccc(C(F)(F)F)cc4)c3)c2)C2=CN=NC2NC2=C1C(=O)NC(C)(C)C2` (some centres not stated) [US20250313563, Compound 951849] as the molecule, how does the pIC50 read?
A: 6.00 to 7.00
